Data as given in patent US20250186419A1, “DOSING REGIMENS FOR TREATING PAIN” (VERTEX PHARMACEUTICALS INCORPORATED, priority 2023, published 2025).
Entries after “also recorded” stand apart in the source; their conditions may differ.

Legend:
[1] = test system: acute pain (surgical and non-surgical); test: Single-arm study of safety and effectiveness of Compound 1 for acute pain, surgical and non-surgical subjects (Example 7); assay type: in vivo, human; conditions: Compound 1 100 mg first dose, then 50 mg q12h
[2] = test system: painful diabetic peripheral neuropathy (DPN); test: Randomized, double-blind, active-controlled, dose-ranging, 4-arm study of Compound 1 in painful diabetic peripheral neuropathy (Example 8)
Excerpt: The study population included male and female subjects 18 through 80 years of age, inclusive, with presence of bilateral pain in lower extremities due to DPN for at least 1 year, and weekly average Numeric Pain Rating Scale (NPRS) pain score of ≥4.
Subjects who met eligibility criteria entered a 7-day Run-in Period to establish their baseline Numeric Pain Rating Scale (NPRS) pain score and Daily Sleep Interference Scale (DSIS) score. Subjects with a baseline average NPRS score of ≥4 points with limited variation (SD<25% of mean) were eligible for the 12-week Treatment Period followed by a Safety Follow-up Visit.
Randomization was stratified by sex (female and male) and body mass index (≥30 and <30 kg/m^2). To maintain the blind, all subjects received the same number of tablets once daily (qd) in the morning and the same number of capsules 3 times per day (tid) in a double-dummy design.
Acetaminophen was be permitted as a pain rescue medication as needed (prn) throughout the study. Subjects were permitted to take 500 mg of acetaminophen every 4 to 6 hours as needed, up to a maximum of 2500 mg in any 24-hour period.
The reference drug was administered orally in a 100 mg capsule tid.
From Day −7 through Week 12, subjects reported their average daily pain during the last 24 hours on the NPRS via e-diary; during the treatment period, the NPRS was completed in the morning before the first daily dose. Subjects also reported their current pain score before each administration of rescue medication. The NPRS scores from the daily e-diary, especially the change from baseline in the weekly average at Week 12, were used in the primary endpoint analysis, and the proportion of subjects with ≥30%, ≥50%, and ≥70% reduction in weekly average scores, especially at Week 12, as reported in the daily e-diary were used in the secondary endpoint analyses. For the primary endpoint, daily NPRS scores were averaged over a weekly period to reduce the impact of individual high or low pain scores.
Daily Sleep Interference Scale (DSIS): Pain frequently interferes with sleep, and sleep is important to quality of life. The FDA recommends evaluating the effect of analgesics on sleep. DSIS is commonly used in neuropathic pain studies and is assessed on an 11-point scale. The 11 point scale ranges from 0 (none) to 10 (severe). The DSIS was completed each morning before the first daily dose in an e-diary to describe how pain interfered with the subject's sleep. The change from baseline in the weekly average of DSIS, especially at Week 12, was used in the secondary endpoint analysis.
Patient Global Impression of Change (PGIC): The PGIC is commonly used in neuropathic pain studies, and the Initiative on Methods, Measurement, and Pain Assessment in Clinical Trials (IMMPACT) group recommends it as a core outcome measure for chronic pain studies and is thus evaluated in this study. There is some evidence that PGIC may be more sensitive in neuropathic pain studies than pain intensity assessments because it may assess additional quality of life measures. The assessment consists of a single item on a 7-point scale from 1 (very much improved) to 7 (very much worse). The PGIC was completed at selected study visits to quantify the change in subjects' overall status. The proportion of subjects categorized as improved on the PGIC assessment, especially at Week 12, was used in the secondary endpoint analysis.
Proportion of subjects using Rescue Medication and Total Medication Usage: Acetaminophen was permitted as a pain rescue medication as needed (prn) throughout the study.

[3] = test system: acute pain after an abdominoplasty; test: Randomized, double-blind, placebo-controlled, 3-arm study of Compound 1 in acute pain after an abdominoplasty (Example 6); conditions: Compound 1 100 mg first dose, then 50 mg q12 h, placebo 8 hours
[4] = test system: patients undergoing abdominoplasty; test: Study of Compound 1 in patients undergoing abdominoplasty (NCT05034952); assay type: in vivo, human
[5] = test system: acute pain after a bunionectomy; test: Randomized, double-blind, placebo-controlled, 3-arm study of Compound 1 in acute pain after a bunionectomy (Example 5); conditions: Compound 1 100 mg first dose, then 50 mg q12 h, placebo 8 hours
[6] = test system: pain following bunionectomy; test: Randomized, double-blind, placebo-controlled, 5-arm study of Compound 1 in subjects with pain following bunionectomy (Example 4); conditions: for Mean SPID48: oral
Description: A randomized, double-blind, placebo-controlled, 5-arm, parallel-design study to evaluate the efficacy and safety of Compound 1 on acute surgical pain is conducted. Bunionectomy is a well-established, multi-dose, surgical, acute pain model. A randomized, double-blind study design was used to avoid observer bias and reduce symptoms or outcomes arising from the subjects' knowledge of treatment.
Male and female patients between the ages of 18 and 75 years (inclusive) with pain that is ≥4 on an 11-point Numeric Pain Rating Scale (NPRS) and is moderate or severe on the Verbal Categorical Rating Scale (VRS) after bunionectomy are included in the study.
Investigational Drug: Compound 1. The investigational drug was administered orally in 10 mg tablets. […] The investigational drug was administered every 12 hours (q12h). A low, mid, and high dosing regimen were tested. The first dose in the low dosing regime was 20 mg, and the subsequent doses were 10 mg g12h. The first dose in the mid dosing regime was 60 mg, and the subsequent doses were 30 mg g12h. The first dose in the high dosing regime was 100 mg, and the subsequent doses were 50 mg g12h.
The reference drug was administered orally in 5 mg/325 mg capsules, supplied as over-encapsulated 5 mg/325 mg tablets. The reference drug was administered in a dose of 5 mg/325 mg every 6 hours (q6h).
After a screening period, subjects receive a primary unilateral first metatarsal bunionectomy repair on Day minus one under regional anesthesia (Mayo and popliteal block). A continuous popliteal sciatic block infusion (0.2% ropivacaine) is started after surgery, and remains in place until approximately 3 AM on Day 1. After removal of the popliteal sciatic block, each subject is randomized when the subject requests the first dose of study drug for pain relief and reports pain ≥4 on the NPRS and moderate or severe pain on the VRS.
Randomization was stratified by site and baseline NPRS (<8 versus ≥8). To maintain the blind, all subjects receive the same number of capsules in a double-dummy design.
Compound 1 was administered every 12 hours (q12h). The final dose of Compound 1 is given 36 hours after the first dose.
Compound 1 placebo capsules are administered every 12 hours (q12h).
11-point (0 to 10) Numeric Pain Rating Scale: NPRS scores are frequently used in bunionectomy studies and are recognized by the FDA as a valid pain intensity measure. On the 11-point NPRS, a score of 0 denotes no pain, and a score of 10 denotes the worst pain intensity imaginable. Subjects reported their pain on the 11-point NPRS immediately before their first dose of the study drug (baseline NPRS score) and at intervals over 48 hour period (i.e. 0.5, 1, 1.5, 2, 3, 4, 5, 6, 8, 12, 16, 20, 24, 28, 32, 36, 40, 44, and 48 hours (±5 minutes)) after the first dose of the study drug. Pain intensity is also recorded on the NPRS immediately before each administration of rescue medication. Pain intensity scores that are collected within 4 hours after a dose of rescue medication are deemed missing, and the missing values are imputed as the intensity recorded immediately before the administration of rescue medication.
SPID-48 is the sum of the pain intensity difference (PID) over the 48 hour time period. A pain intensity score of 0 (no pain) to 10 (worse possible pain) is obtained before starting the study and throughout the 48 time period. The pain score at each assessment time is subtracted from the baseline pain score to provide the total sum score or SPID-48. A higher SPID-48 is better and indicates a reduction in pain intensity compared to the baseline score.
4-point Verbal Categorical Rating Scale: Subjects report their pain on the 4-point VRS (none, mild, moderate, or severe) immediately before their first dose of the study drug (baseline VRS).

[7] = Compound 1 combined dose groups, pregabalin 100 mg tid, 12 weeks

COc1c([C@H]2[C@H](C(=O)Nc3ccnc(C(N)=O)c3)O[C@@](C)(C(F)(F)F)[C@H]2C)ccc(F)c1F [Compound 1, (2R,3S,4S,5R)-4-[[3-(3,4-difluoro-2-methoxy-phenyl)-4,5-dimethyl-5-(trifluoromethyl)tetrahydrofuran-2-carbonyl]amino]pyridine-2-carboxamide]
Patients reporting good, very good, or excellent on Patient Global Assessment (PGA) at end of treatment ([1]; all patients (256 subjects)): 83.2% | Patients reporting good, very good, or excellent on Patient Global Assessment (PGA) at end of treatment ([1]; non-surgical patients (34 subjects)): 91.2% | Patients reporting good, very good, or excellent on Patient Global Assessment (PGA) at end of treatment ([1]; surgical patients (222 subjects)): 82.0% | Serious adverse events related to study drug ([1]; up to 14 days): no serious adverse events were related to Compound 1 | Incidence of serious adverse events ([1]; up to 14 days, 256 subjects): 0.8% | Treatment discontinuations due to adverse events ([1]; up to 14 days, 256 subjects): 2.0% | Safety and tolerability ([1]; up to 14 days, surgical and non-surgical pain, 256 subjects): generally safe and well tolerated | Change from baseline at week 12 in weekly average of daily pain on the NPRS (LS Mean) ([2]; Compound 1 23 mg qd (low dose), painful DPN): −2.18 | Change from baseline at week 12 in weekly average of daily pain on the NPRS (LS Mean) ([2]; Compound 1 46 mg qd (mid dose), painful DPN): −2.11 | Change from baseline at week 12 in weekly average of daily pain on the NPRS (LS Mean) ([2]; Compound 1 69 mg qd (high dose), painful DPN): −2.26 | Reduction in pain from baseline (NPRS) ([2]; all three Compound 1 dose groups (23, 46, 69 mg qd), 12-week treatment, painful DPN): statistically significant and clinically meaningful reduction in pain from baseline; also recorded: significant mean reduction in pain from baseline that started from week 1 | Sleep (Daily Sleep Interference Scale, DSIS) at week 12 ([2]; all three Compound 1 dose groups (23, 46, 69 mg qd), painful DPN): improvement in sleep | Median time to ≥2-point reduction in NPRS from baseline [3]: 2 h | Improvement in SPID48 [4]: statistically significant improvement in SPID48 | Median time to 2-point reduction in NPRS from baseline [5]: 4 h | Onset of action ([6]; Compound 1 high dose, 48 hour assessment): rapid and was sustained through the duration of assessment | Mean SPID48 ([6]; High-dose Compound 1: 100 mg first dose/50 mg every 12 hours, n = 60, NPRS 0 to 48 hours): 137.8 | Mean SPID48 difference from placebo ([6]; Low-dose Compound 1: 20 mg first dose/10 mg every 12 hours, n = 33): 11.9 | Mean SPID48 ([6]; Low-dose Compound 1: 20 mg first dose/10 mg every 12 hours, n = 33, NPRS 0 to 48 hours): 112.9 | Mean SPID48 difference from placebo ([6]; Mid-dose Compound 1: 60 mg first dose/30 mg every 12 hours, n = 62): −14.1 | Mean SPID48 ([6]; Mid-dose Compound 1: 60 mg first dose/30 mg every 12 hours, n = 62, NPRS 0 to 48 hours): 86.9

CC(C)C[C@H](CN)CC(=O)O [Pregabalin, reference compound]
Incidence of dizziness (adverse event) [2, 7]: 9.3% | Incidence of peripheral edema (adverse event) [2, 7]: 5.6% | Incidence of weight increased (adverse event) [2, 7]: 7.4% | Change from baseline at week 12 in weekly average of daily pain on the NPRS (LS Mean) ([2]; Pregabalin 100 mg tid, painful DPN): −2.09 | Related adverse events ([2]; patients treated with Compound 1 (combined), patients treated with pregabalin 100 mg tid, 12 weeks): 27.8%
